Laboratory results published in patent publication EP4775582A1, “MACROCYCLIC COMPOUND AND ANTIBODY-DRUG CONJUGATE THEREOF” (Genfleet Therapeutics (Shanghai) Inc., priority 2023, dated 2025).
Values after ≈ are worked out from the molar mass of the structure shown. Like-named read-outs stand apart in the source and are kept apart here.

Assays:
AsPC-1 p-ERK = experiment: Cell p-ERK assay (HTRF), AsPC-1 cells; type: cell-based, human; conditions: AsPC-1 cells (KRAS G12D), 3 h incubation, read-out: AsPC-1 p-ERK IC50
In short: (§1)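 Phospho-ERK (T202/Y204) was measured by HTRF in lysates after 3 h compound treatment at 37 °C. Cells had been plated the previous day at 20000 per well for NCI-H441 and 10000 per well for AsPC-1. Four-parameter dose-response fitting of % inhibition gave IC50 values.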

H441 p-ERK = experiment: Cell p-ERK assay (HTRF), NCI-H441 cells; type: cell-based, human; conditions: NCI-H441 cells (KRAS G12V), 3 h incubation
In short: as §1

AsPC-1 cells = experiment: 3D cell proliferation assay (CellTiter Glo-3D), AsPC-1; type: cell-based, human; conditions: AsPC-1 cells (KRAS G12D), 3D, 2% FBS, 5 days, read-out: AsPC-1 AP IC50
In short: (§2)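 IC50 values come from four-parameter fits of inhibition rate against log compound concentration, using CellTiter-Glo luminescence read after 5 days' exposure. AsPC-1 and NCI-H441 were plated at 800 cells per well in low-serum (2% FBS) medium. Compound was dosed the day after seeding, with incubation at 37 °C, 5% CO2.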

KRAS WT-cRAF = KRAS WT-cRAF (Homo sapiens, UniProt P01116+P62937); experiment: Assay for binding of KRAS to cRAF (HTRF, with Cyclophilin A), KRAS WT
Procedure: (§3) The plate was centrifuged at 1000 rpm for 1 min and then incubated in the thermostatic incubator at 20 °C for 30 min. […] The plate was centrifuged at 1000 rpm for 1 min and then incubated in the thermostatic incubator at 20 °C for 60 min. […] The working solution was added to the aforementioned assay plate at 5 µL/well. The plate was centrifuged at 1000 rpm for 1 min and then incubated in the thermostatic incubator at 20 °C for 60 min.

KRAS G12V-cRAF = KRAS G12V-cRAF (Homo sapiens, UniProt P01116+P62937, G12V); experiment: Assay for binding of KRAS to cRAF (HTRF, with Cyclophilin A), KRAS G12V
Procedure: as §3

NCI-H441 cells = experiment: 3D cell proliferation assay (CellTiter Glo-3D), NCI-H441; type: cell-based, human; conditions: NCI-H441 cells (KRAS G12V), 2% FBS, 5 days, read-out: H441 AP IC50
In short: as §2

[1] = Human liver microsomal stability experiment; type: in vitro ADME; conditions: human liver microsomes; for CLint scaled: 45 mg/g, 20.7 g/kg scaling
Procedure: This experiment was intended to investigate the metabolic stability of the test compounds in human liver microsomes. The materials used in the experiment included 10 mM solutions of the test compounds and the control sample, human liver microsomes, and reduced nicotinamide adenine dinucleotide phosphate (NADPH) powder. In the experiment, a 100 mM potassium phosphate buffer was used as the buffer system.
The liver microsome working solution was prepared by diluting the liver microsome stock solution to 0.75 mg/mL using the 100 mM potassium phosphate buffer. Then, 5 µL of the 10 mM stock solution of the test compound was taken, and 195 µL of methanol was added. The mixture was well mixed to prepare a working solution A with a concentration of 0.25 mM. Subsequently, the working solution A was diluted to 1.5 µM using the liver microsome working solution to prepare a compound-liver microsome mixed solution. Additionally, NADPH powder was dissolved in 100 mM potassium phosphate buffer to prepare a 6 mM NADPH solution. The compound-liver microsome mixed solution was dispensed into a 96-well plate at 30 µL/well, with labeled time points of 0 min, 30 min, and 60 min. For 0-min samples, 180 µL of acetonitrile containing 100 ng/mL tolbutamide and 15 µL of the NADPH solution were added directly. The 96-well plate and the NADPH solution were then preheated under a 37 °C water bath for 5 min. After the preheating, 15 µL of the NADPH solution was added to each of the 30-min and 60-min sample wells. The plate was gently shaken for mixing and then incubated under the 37 °C water bath for the corresponding time. After the incubation was completed, 180 µL of acetonitrile containing 100 ng/mL tolbutamide was added to each sample well. The plate was sealed with a sealing film, shaken for 10 min (800 rpm/min), and then centrifuged for 15 min (4000 rpm). After the centrifugation, 50 µL of the supernatant was taken and added to a 96-well plate containing 150 µL of deionized water, and then the plate was sealed and shaken for 10 min (800 rpm) for uniform mixing. Subsequently, sample analysis was performed using liquid chromatography-tandem mass spectrometry (LC-MS/MS). […] For humans, the microsome protein-to-liver weight ratio was 45 mg/g, and the liver-to-body weight ratio was 20.7 g/kg.

[2] = Solubility experiment (HPLC, external standard); type: physicochemical; conditions: pH 7.4, pH 7.4 medium, 37 °C, 24 h
In short: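 Solid compound (about 1 mg per 1 mL medium) was shaken at 37 °C for 24 h in pH 1.2, 4.5 or 7.4 media, then centrifuged and the supernatant diluted with acetonitrile/water 50/50. Concentration in μg/mL was found by HPLC against an external standard prepared from a DMSO stock.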

[3] = KRAS WT-cRAF binding assay(nM), GPPNP-KRAS WT, IC50 values
[4] = KRAS G12V-cRAF binding assay(nM), GPPNP-KRAS G12V, IC50 values
[5] = read-out: KRAS WT-cRAF binding assay, GPPNP-KRAS WT, IC50 values
[6] = read-out: KRAS G12V-cRAF binding assay, GPPNP-KRAS G12V, IC50 values

Sequence of KRAS G12V-cRAF (P01116 1-188 isoform P01116-2 G12V): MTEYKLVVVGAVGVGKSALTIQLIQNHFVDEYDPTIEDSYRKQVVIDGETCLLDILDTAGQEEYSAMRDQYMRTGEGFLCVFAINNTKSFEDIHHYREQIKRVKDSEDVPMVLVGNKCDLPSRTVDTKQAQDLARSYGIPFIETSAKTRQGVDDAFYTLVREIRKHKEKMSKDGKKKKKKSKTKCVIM
Sequence of KRAS G12V-cRAF (P62937 whole entry): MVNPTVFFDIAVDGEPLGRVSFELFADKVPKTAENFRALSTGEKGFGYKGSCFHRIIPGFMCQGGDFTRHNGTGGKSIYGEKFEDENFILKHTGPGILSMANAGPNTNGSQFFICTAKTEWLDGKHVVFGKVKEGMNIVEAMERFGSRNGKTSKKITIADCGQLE
Sequence of KRAS WT-cRAF (P01116 1-188 isoform P01116-2): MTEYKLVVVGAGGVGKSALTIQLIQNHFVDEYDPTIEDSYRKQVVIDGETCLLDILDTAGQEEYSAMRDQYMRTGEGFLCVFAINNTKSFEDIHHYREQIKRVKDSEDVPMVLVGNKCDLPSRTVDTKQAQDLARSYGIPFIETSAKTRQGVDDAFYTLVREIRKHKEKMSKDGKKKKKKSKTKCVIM
Sequence of KRAS WT-cRAF (P62937 whole entry): as the sequence (P62937 whole entry) above

| IC50 (AsPC-1 p-ERK; Homo sapiens, ASPC1) [nM] | IC50 (H441 p-ERK; Homo sapiens) [nM] | IC50 (AsPC-1 cells; Homo sapiens, ASPC1, 120 h) [nM] | IC50 (KRAS WT-cRAF; [3]) [nM] | IC50 (KRAS G12V-cRAF; [4]) [nM] | IC50 (NCI-H441 cells; Homo sapiens, 120 h) [nM] | CLint scaled [1] [mL/min/kg] | IC50 (KRAS WT-cRAF; [5]) [nM] | IC50 (KRAS G12V-cRAF; [6]) [nM] | Structure (SMILES) | half-life ([1]; NADPH, 37 °C) [min] | further results |
| --- | --- | --- | --- | --- | --- | --- | --- | --- | --- | --- | --- |
| – | – | – | – | – | – | 88.5 | 14.8 | 5.48 | CCn1c(-c2cc(C#CCN3CCC(C#N)CC3)cnc2[C@H](C)OC)c2c3cc(ccc31)-c1csc(n1)C[C@H](NC(=O)[C@H]1[C@H](C)[C@@H]1C)C(=O)N1CCC[C@H](N1)C(=O)OCC(C)(C)C2 (atropisomer, axis not shown; (Ra)) [Compound Z282, (1r,2R,3S)-N-((6^3S,4S,Z)-1^2-(5-(3-(4-cyanopiperidin-1-yl)prop-1-yn-1-yl)-(Ra)-2-((S)-1-methoxyethyl)pyridin-3-yl)-1^1-ethyl-10,10-dimethyl-5,7-dioxo-6^1,6^2,6^3,6^4,6^5,6^6-hexahydro-1^1H-8-oxa-2(4,2)-thiazola-1(5,3)-indola-6(1,3)-pyridazinacycloundecaphan-4-yl)-2,3-dimethylcyclopropane-1-carboxamide] | 18.1 | – |
| – | – | – | – | – | – | 164 | 48.6 | 10.9 | CCn1c(-c2cc(C#CCN3CCN(C(C)=O)CC3)cnc2[C@H](C)OC)c2c3cc(ccc31)-c1csc(n1)C[C@H](NC(=O)[C@H]1[C@H](C)[C@@H]1C)C(=O)N1CCC[C@H](N1)C(=O)OCC(C)(C)C2 (atropisomer, axis not shown) [Control compound 2] | 9.8 | solubility at 24 h ([2]; ph 7.4 medium): 1.5 µg/mL (≈ 1.68 µM) |
| 0.11 | 0.21 | 0.15 | 27.7 | 12.3 | 0.1 | 52.9 | – | – | CCn1c(-c2cc(C#CCN3CCC(O)CC3)cnc2C(C)OC)c2c3cc(ccc31)-c1csc(n1)CC(NC(=O)C1C(C)C1C)C(=O)N1CCCC(N1)C(=O)OCC(C)(C)C2 (atropisomer, axis not shown; (Ra)) [Compound Z11, (1r,2R,3S)-N-((6^3S,4S,Z)-1^1-ethyl-(Ra)-1^2-(5-(3-(4-hydroxypiperidin-1-yl)prop-1-yn-1-yl)-2-((S)-1-methoxyethyl)pyridin-3-yl)-10,10-dimethyl-5,7-dioxo-6^1,6^2,6^3,6^4,6^5,6^6-hexahydro-1^1H-8-oxa-2(4,2)-thiazola-1(5,3)-indola-6(1,3)-pyridazinacycloundecaphane-4-yl)-2,3-dimethylcyclopropane-1-carboxamide] | – | half-life at 1 µM ([1]; NADPH, 37 °C): 30.3 min |

The next lines start with the compound.

| Structure (SMILES) | IC50 (AsPC-1 p-ERK; Homo sapiens, ASPC1) [nM] | IC50 (H441 p-ERK; Homo sapiens) [nM] | IC50 (AsPC-1 cells; Homo sapiens, ASPC1, 120 h) [nM] | IC50 (KRAS WT-cRAF; [3]) [nM] | IC50 (KRAS G12V-cRAF; [4]) [nM] | IC50 (NCI-H441 cells; Homo sapiens, 120 h) [nM] | CLint scaled [1] [mL/min/kg] | IC50 (KRAS WT-cRAF; [5]) [nM] | IC50 (KRAS G12V-cRAF; [6]) [nM] | half-life ([1]; NADPH, 37 °C) [min] | further results |
| --- | --- | --- | --- | --- | --- | --- | --- | --- | --- | --- | --- |
| CCn1c(-c2cc(C#CCN3CCC(C#N)CC3)cnc2C(C)OC)c2c3cc(ccc31)-c1csc(n1)CC(NC(=O)C1C3COCC31)C(=O)N1CCCC(N1)C(=O)OCC(C)(C)C2 (atropisomer, axis not shown; (Ra)) [Compound Z56, (1R,5S,6r)-N-((6^3S,4S,Z)-(Ra)-1^2-(5-(3-(4-cyanopiperidin-1-yl)prop-1-yn-1-yl)-2-((S)-1-methoxyethyl)-pyridin-3-yl)-1^1-ethyl-10,10-dimethyl-5,7-dioxo-6^1,6^2,6^3,6^4,6^5,6^6-hexahydro-1^1H-8-oxa-2(4,2)-thiazola-1(5,3)-indola-6(1,3)-pyridazinacycloundecaphane-4-yl)-3-oxabicyclo[3.1.0]hexane-6-carboxamide] | 0.07 | 0.12 | 0.09 | 13.9 | 11.9 | 0.14 | 68.9 | – | – | – | half-life at 1 µM ([1]; NADPH, 37 °C): 23.3 min |
| CCn1c(-c2cc(C#CCN3CCC(C#N)(CN)CC3)cnc2[C@H](C)OC)c2c3cc(ccc31)-c1csc(n1)C[C@H](NC(=O)[C@H]1[C@@H]3COC[C@@H]31)C(=O)N1CCC[C@H](N1)C(=O)OCC(C)(C)C2 (atropisomer, axis not shown; (Ra)) [Compound Z52, (1R,5S,6r)-N-((6^3S,4S,Z)-(Ra)-1^2-(5-(3-(4-(aminomethyl)-4-cyanopiperidin-1-yl)prop-1-yn-1-yl)-2-((S)-1-methoxyethyl)-pyridin-3-yl)-1^1-ethyl-10,10-dimethyl-5,7-dioxo-6^1,6^2,6^3,6^4,6^5,6^6-hexahydro-1^1H-8-oxa-2(4,2)-thiazola-1(5,3)-indola-6(1,3)-pyridazinacycloundecaphane-4-yl)-3-oxabicyclo[3.1.0]hexane-6-carboxamide] | – | – | – | – | – | – | – | 16.5 | 13.3 | – | IC50 (AsPC-1 p-ERK): 0.06 nM; IC50 (H441 p-ERK): 0.13 nM; IC50 (AsPC-1 cells): 0.08 nM; IC50 (NCI-H441 cells): 0.17 nM; T1/2 ([1]; NADPH, 37 °C): 47.3 min |
| CCn1c(-c2cc(C#CCN3CCC(C#N)(CN)CC3)cnc2[C@H](C)OC)c2c3cc(ccc31)-c1csc(n1)C[C@H](NC(=O)[C@H]1[C@H](C)[C@@H]1C)C(=O)N1CCC[C@H](N1)C(=O)OCC(C)(C)C2 (atropisomer, axis not shown; (Ra)) [Compound Z181, (1r,2R,3S)-N-((6^3S,4S,Z)-1^2-(Ra)-(5-(3-(4-(aminomethyl)-4-cyanopiperidin-1-yl)prop-1-yn-1-yl)-2-((S)-1-methoxyethyl)pyridin-3-yl)-1^1-ethyl-10,10-dimethyl-5,7-dioxo-6^1,6^2,6^3,6^4,6^5,6^6-hexahydro-1^1H-8-oxa-2(4,2)-thiazola-1(5,3)-indola-6(1,3)-pyridazinacycloundecaphan-4-yl)-2,3-dimethylcyclopropane-1-carboxamide] | – | – | – | – | – | – | 36.9 | 36.4 | 13.1 | 43.4 | – |
| CCn1c(-c2cc(C#CCN3CCC(C#N)(CN)CC3)cnc2[C@H](C)OC)c2c3cc(ccc31)-c1coc(n1)C[C@H](NC(=O)[C@H]1[C@H](C)[C@@H]1C)C(=O)N1CCC[C@H](N1)C(=O)OCC(C)(C)C2 (atropisomer, axis not shown; (Ra)) [Compound Z182] | – | – | – | – | – | – | 97.9 | 34.5 | 13 | 16.4 | – |
| CCn1c(-c2cc(C#CCN3CCN(C(=O)CN)CC3)cnc2C(C)OC)c2c3cc(ccc31)-c1csc(n1)CC(NC(=O)C1C3COCC31)C(=O)N1CCCC(N1)C(=O)OCC(C)(C)C2 (atropisomer, axis not shown; (Ra)) [Compound Z47, (1R,5S,6r)-N-((6^3S,4S,Z)-1^1-ethyl-(Ra)-1^2-(5-(3-(4-glycylpiperazin-1-yl)prop-1-yn-1-yl)-2-((S)-1-methoxyethyl)pyridin-3-yl)-10,10-dimethyl-5,7-dioxo-6^1,6^2,6^3,6^4,6^5,6^6-hexahydro-1^1H-8-oxa-2(4,2)-thiazola-1(5,3)-indola-6(1,3)-pyridazinacycloundecaphane-4-yl)-3-oxabicyclo[3.1.0]hexane-6-carboxamide] | 2.33 | 0.58 | 1.2 | 34.4 | 19.3 | 0.75 | – | – | – | – | solubility at 24 h ([2]; pH 7.4 medium): 109 µg/mL (≈ 118 µM) |
